Target in the first assay: not listed separately
Put plainly: Inhibition of rat intestinal alpha-glucosidase using p-nitrophenyl-alpha-D-glucopyranoside assessed as release of p-nitrophenol after 5 mins by spectrophotometric analysis.
As a reminder, the IC50 is the concentration that inhibits the measured activity by half. Regarding `CCOc1cc(C(c2c(O)c3cc(Cl)ccc3oc2=O)c2c(O)c3cc(Cl)ccc3oc2=O)ccc1O`, the IC50 is 57.1 µM.
As to `O=c1oc2ccc(Cl)cc2c(O)c1C(c1ccccc1[N+](=O)[O-])c1c(O)c2cc(Cl)ccc2oc1=O`, the IC50 stood at 80.9 µM.
With `COc1cc(C(c2c(O)c3cc(C)ccc3oc2=O)c2c(O)c3cc(C)ccc3oc2=O)cc(OC)c1OC`, the IC50 worked out at 386 µM.
On to `COc1ccc(C(c2c(O)c3cc(Cl)ccc3oc2=O)c2c(O)c3cc(Cl)ccc3oc2=O)cc1OC`, for which the IC50 worked out at 91.4 µM.
The same measure, in the same setting: the figure for `C[C@H]1O[C@H](O[C@H]2[C@H](O)[C@@H](O)[C@@H](O[C@H]3[C@H](O)[C@@H](O)C(O)O[C@@H]3CO)O[C@@H]2CO)[C@H](O)[C@@H](O)[C@@H]1N[C@H]1C=C(CO)[C@@H](O)[C@H](O)[C@H]1O` (stereo partly specified) [ACARBOSE] is 906 µM; for `CCOc1cc(C(c2c(O)c3cc(C)ccc3oc2=O)c2c(O)c3cc(C)ccc3oc2=O)ccc1O` it is 222 µM.
Turning to `O=c1oc2ccc(Cl)cc2c(O)c1C(c1cccc(O)c1)c1c(O)c2cc(Cl)ccc2oc1=O`, the IC50 stood at 84.1 µM.
Still for that read-out and setting: the figure for `Cc1ccc2oc(=O)c(C(c3cccc([N+](=O)[O-])c3)c3c(O)c4cc(C)ccc4oc3=O)c(O)c2c1` is 68 µM; for `O=c1oc2ccc(Cl)cc2c(O)c1C(c1cccc([N+](=O)[O-])c1)c1c(O)c2cc(Cl)ccc2oc1=O` it is 27.1 µM.
With `Cc1ccc2oc(=O)c(C(c3ccc([N+](=O)[O-])cc3)c3c(O)c4cc(C)ccc4oc3=O)c(O)c2c1`, the IC50 was determined as 79.2 µM.
Take `CSc1ccc(C(c2c(O)c3cc(C)ccc3oc2=O)c2c(O)c3cc(C)ccc3oc2=O)cc1`: the IC50 turned out to be 37.4 µM.
On the same count and under the same terms, the figure for `Cc1ccc2oc(=O)c(C(c3ccccc3[N+](=O)[O-])c3c(O)c4cc(C)ccc4oc3=O)c(O)c2c1` is 129 µM.
Regarding `Cc1ccc2oc(=O)c(C(c3cccc(O)c3)c3c(O)c4cc(C)ccc4oc3=O)c(O)c2c1`, the IC50 was 52.6 µM.
In the case of `COc1ccc(C(c2c(O)c3cc(Cl)ccc3oc2=O)c2c(O)c3cc(Cl)ccc3oc2=O)cc1O`, the IC50 came to 83.6 µM.
The same measure, in the same setting: as for `COc1cc(C(c2c(O)c3cc(Cl)ccc3oc2=O)c2c(O)c3cc(Cl)ccc3oc2=O)cc(OC)c1OC`, the figure is 128 µM; as for `COc1ccc(C(c2c(O)c3cc(Cl)ccc3oc2=O)c2c(O)c3cc(Cl)ccc3oc2=O)cc1`, 75.7 µM; as for `O=c1oc2ccc(Cl)cc2c(O)c1C(c1ccc(Cl)cc1Cl)c1c(O)c2cc(Cl)ccc2oc1=O`, 16.5 µM.
In the case of `COc1ccc(C(c2c(O)c3cc(C)ccc3oc2=O)c2c(O)c3cc(C)ccc3oc2=O)cc1`, the IC50 amounted to 107 µM.
With `COc1cc(C(c2c(O)c3cc(Cl)ccc3oc2=O)c2c(O)c3cc(Cl)ccc3oc2=O)ccc1O`, the IC50 was found to be 113 µM.

For the next assay, the species on record is Rattus norvegicus. Put plainly: Ratio of acarbose IC50 to compound IC50 for rat intestinal alpha-glucosidase using p-nitrophenyl-alpha-D-glucopyranoside assessed as release of p-nitrophenol after 5 mins by spectrophotometric analysis.
On to `O=c1oc2ccc(Cl)cc2c(O)c1C(c1cccc([N+](=O)[O-])c1)c1c(O)c2cc(Cl)ccc2oc1=O`, for which the Ratio IC50 stood at 33.
Consider `O=c1oc2ccc(Cl)cc2c(O)c1C(c1ccc(Cl)cc1Cl)c1c(O)c2cc(Cl)ccc2oc1=O`, for which the Ratio IC50 worked out at 54.
